Target: T1, ANO2 (Mus musculus, UniProt Q8CFW1)
T1 sequence (Q8CFW1 1-1002): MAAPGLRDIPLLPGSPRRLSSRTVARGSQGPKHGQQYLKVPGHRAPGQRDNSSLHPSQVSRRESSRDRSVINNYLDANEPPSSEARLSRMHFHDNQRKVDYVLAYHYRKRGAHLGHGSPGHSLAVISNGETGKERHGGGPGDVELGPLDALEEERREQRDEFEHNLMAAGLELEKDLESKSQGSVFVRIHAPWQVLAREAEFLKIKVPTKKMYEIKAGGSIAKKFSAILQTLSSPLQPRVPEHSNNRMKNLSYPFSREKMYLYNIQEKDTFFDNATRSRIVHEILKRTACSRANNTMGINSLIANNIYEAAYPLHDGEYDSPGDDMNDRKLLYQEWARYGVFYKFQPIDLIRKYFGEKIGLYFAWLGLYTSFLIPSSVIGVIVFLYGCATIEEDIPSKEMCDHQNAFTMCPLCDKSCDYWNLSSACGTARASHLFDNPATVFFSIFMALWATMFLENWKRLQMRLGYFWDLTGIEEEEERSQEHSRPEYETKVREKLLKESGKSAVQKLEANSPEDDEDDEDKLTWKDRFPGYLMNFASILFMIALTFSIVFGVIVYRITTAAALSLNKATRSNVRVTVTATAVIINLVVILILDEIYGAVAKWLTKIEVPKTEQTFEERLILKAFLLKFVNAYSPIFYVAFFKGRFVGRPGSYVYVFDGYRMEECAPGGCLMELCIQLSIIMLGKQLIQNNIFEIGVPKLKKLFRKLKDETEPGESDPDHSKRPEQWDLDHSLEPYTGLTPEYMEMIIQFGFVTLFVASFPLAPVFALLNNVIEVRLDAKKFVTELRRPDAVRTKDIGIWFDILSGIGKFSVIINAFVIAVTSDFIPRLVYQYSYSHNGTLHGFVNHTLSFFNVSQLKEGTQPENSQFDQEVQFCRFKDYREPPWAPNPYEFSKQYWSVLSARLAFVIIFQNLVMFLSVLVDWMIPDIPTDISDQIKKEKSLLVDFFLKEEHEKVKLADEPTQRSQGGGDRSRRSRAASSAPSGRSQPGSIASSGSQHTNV
Assay: Apical membrane current in FRT-ANO2 cells
Type: cell-based
Method: Snapwell inserts containing ANO1, ANO2 or CFTR expressing FRT cells, ENaC expressing T-84 cells or the human primary airway epithelial cells were mounted in Ussing chambers (Physiologic Instruments, San Diego, CA). To induce transcriptional ENaC induction, the polarized T84 cells were incubated with 2 mM sodium butyrate for 2 days. To increase the functional expression of ANO1, the human airway epithelial cells were treated with IL-4 (10 ng/mL) for 2 days. For T-84 and the human primary airway epithelial cells, the apical and basolateral bath were filled with HCO3^—buffered solution containing (in mM): 120 NaCl, 5 KCl, 1 MgCl2, 1 CaCl2, 10 D-glucose, 2.5 HEPES, and 25 NaHCO3 (pH 7.4). For FRT cells, the basolateral bath was filled with the HCO3^—buffered solution and the apical bath was filled with a half-Cl^- solution. In the half-Cl^- solution 65 mM NaCl in the HCO3^—buffered solution was replaced by Na-gluconate. […] ATP was applied to the apical bath solution to induce intracellular calcium increase. […] Apical membrane currents were measured with an EVC4000 Multi-Channel V/I Clamp (World Precision Instruments, Sarasota, FL) and PowerLab 4/35 (AD Instruments, Castle Hill, Australia). Data were analyzed using Labchart Pro 7 (AD Instruments). The sampling rate was 4 Hz.
ANO1 belongs to anoctamin gene family which contains ten members presenting eight-pass transmembrane segments with cytosolic N- and C-terminals. ANO2 shares a high level of amino acid homology to ANO1 (~60%) and, ANO1 and ANO2 are confirmed CaCCs. However, the roles of other family members (ANO3-ANO10) remain poorly understood and controversial. […] We investigated the effect of these inhibitors on ANO2-mediated apical membrane current in FRT-ANO2 cells.

COc1ccccc1C=NNC(=O)COc1ccc(Cl)cc1C [Ani9, 2-(4-chloro-2-methylphenoxy)-N-[(2-methoxyphenyl)methylideneamino]-acetamide] was tested, and the “effect on ATP-induced ANO2 current” value (1 μM pretreatment) was “did not affect”, the “block of ANO2 current” value (10 μM pretreatment) was 10 ± 1.6% and the “inhibitory effect on ANO2” value (higher concentrations (3 and 10 μM)) was “relatively small inhibitory effect”.
